17 compounds from patent US6596772B1, “Phosphate mimics and methods of treatment using phosphatase inhibitors” (Sugen, Inc., priority 1999, dated 2003) can be followed below.

Structures are written as SMILES. Where two headings read alike, the source gives them in different places.

Holding throughout (experiment): PTP IC50 assay, fluorescent substrate DiFMUP
Common to all, as to assay type: biochemical

For one experiment, the target named is T1, PTP 1B (Homo sapiens, UniProt P18031).
T1 construct: made in house; host or cells: Sf-9 insect cells (pFastBac-G2T)
T1 sequence (P18031 1-435): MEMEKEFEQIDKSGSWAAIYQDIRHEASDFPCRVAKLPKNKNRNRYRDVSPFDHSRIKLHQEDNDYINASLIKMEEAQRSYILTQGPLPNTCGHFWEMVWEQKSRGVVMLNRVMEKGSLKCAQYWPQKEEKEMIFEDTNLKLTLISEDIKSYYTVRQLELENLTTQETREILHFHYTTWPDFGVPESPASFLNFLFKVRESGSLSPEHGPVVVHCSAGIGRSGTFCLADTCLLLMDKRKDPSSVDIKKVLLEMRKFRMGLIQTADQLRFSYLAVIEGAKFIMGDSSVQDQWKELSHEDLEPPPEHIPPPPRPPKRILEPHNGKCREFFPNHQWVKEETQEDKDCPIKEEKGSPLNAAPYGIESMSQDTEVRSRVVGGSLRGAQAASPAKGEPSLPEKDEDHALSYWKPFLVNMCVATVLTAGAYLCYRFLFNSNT
The text has this: The PTP1b cDNA was amplified from human placenta single strand cDNA (Clontech RNA) using the following oligonucleotides: 5′oligo: 5′-[…] (SEQ ID NO: 4) 3′oligo: 5′-[…] (SEQ ID NO: 5) It was subsequently ligated into pFasBac G2TBamH1Xba-1 sites.
(§1) The following in vitro assay procedure is preferred to determine the level of activity and effect of the different compounds of the present invention on one or more of the PTPs. Similar assays can be designed along the same lines for any PTP using techniques well known in the art.
(§2) The catalytic assays described herein are performed in a 96-well format. The general procedure begins with the determination of PTP optimal pH using a three-component buffer system that minimizes ionic strength variations across a wide range of buffer pH. Next, the Michaelis-Menten constant, or Km, is determined for the substrate 6,8-difluoro-4-methylumbelliferyl phosphate (DiFMUP). This Km value is subsequently used as the substrate reaction concentration for compound screening. Finally, the test PTP is exposed to varying concentrations of compound for fifteen minutes and allowed to react with substrate for ten minutes. The results are plotted as percent inhibition versus compound concentration and the IC50 interpolated from the plot.
(§3) All assays were performed using DiFMUP as substrate. The optimum pH and substrate Km was determined for each PTP used.
(§4) PTPase activity was assayed at 25° C. in a 100-μl reaction mixture containing an appropriate concentration of DiFMUP as substrate. The reaction was initiated by addition of the purified PTP and quenched after 10 min by addition of 1% H2O2/100 mM NaCl. The non-enzymatic hydrolysis of the substrate was corrected by measuring the control without the addition of the enzyme. The amount of DiFMU produced was determined from the increase in the fluorescence (360 nm excitation/460 nm emission) over that of background in the absence of PTPase. To determine the kinetic parameter, Km, the initial velocities were measured at various substrate concentrations and the data were fitted to the Michaelis equation where velocity=(Vmax*[S])/(Km+[S]), and [S]=substrate reaction concentration.
(§5) The effect of the compounds on PTP was evaluated at 25° C. using DiFMUP as substrate. PTP was pre-incubated for fifteen minutes with various concentrations of compound. Substrate was then added at a fixed concentration (usually equal to the Km previously calculated). After 10 minutes, the reaction was quenched. The hydrolysis of DiFMUP was followed as described above. The percent inhibition was calculated as follows: Percent Inhibition=[(control signal−compound signal)/control signal]×100%. The IC50 was then determined by interpolation of a percent inhibition versus compound concentration plot.
(§6) Plasmids designed for bacterial GST-PTP fusion protein expression were derived by insertion of PCR-generated human PTP fragments into pGEX vectors (Pharmacia Biotech). Several of these constructs were then used to subclone phosphatases into pFastBac-1 for expression in Sf-9 insect cells. Oligonucleotides used for the initial amplification of PTP genes are as described above. The cDNAs were prepared using the Gilbo BRL superscript preamplification system on RNAs purchased from Clontech.

For the next experiment, the target named is T2, PTP SHP2 (Homo sapiens, UniProt Q06124).
T2 construct: The catalytic domain was amplified using the following oligonucleotides; made in house; host or cells: Sf-9 insect cells (pFastBac-G2T)
T2 sequence (Q06124 247-517 limits assumed): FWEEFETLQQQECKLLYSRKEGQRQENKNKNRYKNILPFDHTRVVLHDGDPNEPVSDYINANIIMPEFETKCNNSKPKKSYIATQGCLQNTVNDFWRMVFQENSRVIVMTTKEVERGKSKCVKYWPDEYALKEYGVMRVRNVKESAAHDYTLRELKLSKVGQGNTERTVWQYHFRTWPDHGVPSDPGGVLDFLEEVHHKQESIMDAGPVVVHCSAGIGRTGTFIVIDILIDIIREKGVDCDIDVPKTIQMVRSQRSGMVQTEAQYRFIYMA
Text: SHP-2 cDNA was used as described earlier (Vogel W., et al.,1993, Science, 259:1611-4). The catalytic domain was amplified using the following oligonucleotides 5′oligo: 5′-[…]-3′ (SEQ ID NO: 2) 3′oligo: 5′-[…]-3′ (SEQ ID NO: 3) and subsequently subcloned into BamH1-Xba-1 sites. It was then ligated into pfas Bac-G2T BamH1-Xba-1 sites.
as §1, §2, §3, §4, §5, §6

For the next experiment, the target named is T3, PTP EPSILON (Homo sapiens, UniProt P23469).
T3 construct: made in house; host or cells: Sf-9 insect cells (pFastBac-G2T); a pGEX 6P-1 construct also existed
Text: The PTPepsilon cDNA was amplified from human placenta single-strand cDNA (Clontech RNA) using the following oligonucleotides: 5′oligo: 5′-[…]-3′ (SEQ ID NO: 6) 3′oligo: 5′-[…]-3′ (SEQ ID NO: 7) After cloning this PCR product into the Bam HI/Xho I sites of pGEX 6P-1, this phosphatase was subcloned using the same restriction sites in pFastBac-G2T.
as §1, §2, §3, §4, §5, §6

[1] abbreviates: DiFMUP as substrate, 25° C., read-out: PTP IC50 1B.
Where [2] appears, read: DiFMUP as substrate, 25° C., read-out: PTP IC50 SHP2.
The mark [3] stands for this setting: DiFMUP as substrate, 25° C., read-out: PTP IC50 Epilson.

T3 sequence (P23469 80-393 limits assumed): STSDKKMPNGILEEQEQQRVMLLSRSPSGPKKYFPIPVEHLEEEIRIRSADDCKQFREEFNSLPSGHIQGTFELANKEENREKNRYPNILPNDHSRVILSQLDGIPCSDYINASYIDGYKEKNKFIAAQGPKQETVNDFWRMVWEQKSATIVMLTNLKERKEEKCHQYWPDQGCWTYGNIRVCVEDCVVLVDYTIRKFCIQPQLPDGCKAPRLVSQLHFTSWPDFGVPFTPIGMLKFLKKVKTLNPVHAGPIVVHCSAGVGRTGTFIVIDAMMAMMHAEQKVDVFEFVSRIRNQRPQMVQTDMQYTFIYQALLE

In the case of `O=C(Cc1cccc(CC(=O)Nc2ccc(S(=O)(=O)C(F)(F)F)cc2)c1)Nc1ccc(S(=O)(=O)C(F)(F)F)cc1` [Example 33, N-(4-Trifluoromethanesulfonyl-phenyl)-2-{3-[(4-trifluoromethanesulfonyl-phenylcarbamoyl)-methyl]-phenyl}-acetamide], the values for the IC50 on PTP 1B (setting [1]), at PTP SHP2 (setting [2]) and at PTP EPSILON (setting [3]) were 2.3 µM, 2.3 µM and 20.4 µM, respectively.

For `Cc1cccc(C)c1NC(=O)C(c1ccc(S(=O)(=O)C(F)(F)F)cc1)N(C(=O)c1ccccc1)C1CCCCC1` (stereo not drawn) [Example 49, N-Cyclohexyl-N-[(2,6-dimethyl-phenylcarbamoyl)-(4-trifluoromethanesulfonyl-phenyl)-methyl]-benzamide], the IC50 (as a rule, the concentration at which inhibition is half-maximal) is 8.3 µM at PTP 1B (setting [1]), 10.6 µM on PTP SHP2 (setting [2]) and 9.3 µM at PTP EPSILON (setting [3]).

Regarding `O=[N+]([O-])c1ccc(NCC(O)COc2ccc(S(=O)(=O)C(F)(F)F)cc2[N+](=O)[O-])cc1` (stereo not drawn) [Example 60, 1-(4-Nitro-phenylamino)-3-(2-nitro-4-trifluoromethanesulfonyl-phenoxy)-propan-2-ol], the IC50 on PTP 1B (setting [1]) worked out at 16.2 µM; on PTP SHP2 (setting [2]), 4.8 µM; on PTP EPSILON (setting [3]), 50.9 µM.

For `O=C(Nc1ccccc1)c1cc2cc(NS(=O)(=O)C(F)(F)F)ccc2[nH]1` [Example 81, 5-Trifluoromethanesulfonylamino-1H-indole-2-carboxylic acid phenylamide], the IC50 came to 14.6 µM at PTP 1B (setting [1]), 6.2 µM at PTP SHP2 (setting [2]) and 4.4 µM on PTP EPSILON (setting [3]).

As for `CCOC(=O)c1cc2cc(N(S(=O)(=O)C(F)(F)F)S(=O)(=O)C(F)(F)F)ccc2n1CC(=O)OC(C)(C)C` [Example 99, 1-tert-Butoxycarbonylmethyl-5-(N,N-ditrifluoromethanesulfonyl)amino-1H-indole-2-carboxylic acid ethyl ester], the figures for the IC50 at PTP 1B (setting [1]), at PTP SHP2 (setting [2]) and at PTP EPSILON (setting [3]) were 4.8 µM, 7 µM and 27.5 µM, respectively.

For the compound `CC(C)(C)OC(=O)Cn1c(C(=O)O)cc2cc(NS(=O)(=O)C(F)(F)F)ccc21` [Example 96, 1-tert-Butoxycarbonylmethyl-5-trifluoromethanesulfonylamino-1H-indole-2-carboxylic acid], the figures for the IC50 on PTP 1B (setting [1]), on PTP SHP2 (setting [2]) and on PTP EPSILON (setting [3]) were 34.7 µM, 9.1 µM and 31.2 µM, respectively.

Turning to `Cc1cc2cc(NS(=O)(=O)C(F)(F)F)ccc2n1CC(=O)NCc1ccc(C(=O)O)cc1` [Example 87, 4-{[2-(2-Methyl-5-trifluoromethanesulfonylamino-indol-1-yl)-acetylamino]-methyl}-benzoic acid], the concentration for half-maximal inhibition (IC50) is greater than 20 µM on PTP 1B (setting [1]), 97 µM on PTP SHP2 (setting [2]) and greater than 20 µM at PTP EPSILON (setting [3]).

For the compound `O=C(O)c1cc2cc(NS(=O)(=O)C(F)(F)F)ccc2n1CC1CCCCC1` [Example 103, 1-Cyclohexylmethyl-5-trifluoromethanesulfonylamino-1H-indole-2-carboxylic acid], the IC50 is greater than 100 µM on PTP 1B (setting [1]), 17.9 µM on PTP SHP2 (setting [2]) and 34.7 µM on PTP EPSILON (setting [3]).

Turning to `O=C(O)c1ccc2cc(NS(=O)(=O)C(F)(F)F)ccc2c1` [Example 90, 6-Trifluoromethanesulfonylamino-naphthalene-2-carboxylic acid], the IC50 was greater than 20 µM on PTP 1B (setting [1]), 64 µM on PTP SHP2 (setting [2]) and 35.9 µM on PTP EPSILON (setting [3]).

`Cc1cc2cc(NS(=O)(=O)C(F)(F)F)ccc2n1CC(=O)OC(C)(C)C` [Example 88, (2-Methyl-5-trifluoromethanesulfonylamino-indol-1-yl)-acetic acid tert-butyl ester]: the IC50 was greater than 20 µM on PTP 1B (setting [1]), 31.4 µM at PTP SHP2 (setting [2]) and 8.2 µM at PTP EPSILON (setting [3]).

In the case of `O=C(O)c1cc2cc(NS(=O)(=O)C(F)(F)F)ccc2[nH]1` [Example 77, 5-Trifluoromethanesulfonylamino-1H-indole-2-carboxylic acid], the IC50 at PTP 1B (setting [1]) was greater than 100 µM; at PTP SHP2 (setting [2]) it was greater than 100 µM; at PTP EPSILON (setting [3]) it was greater than 20 µM.

Regarding `CCNC(=O)c1ccc(-c2nc3cc(S(=O)(=O)C(F)(F)F)ccc3n2CC)cc1` [Example 41, N-Ethyl-4-(1-ethyl-5-trifluoromethanesulfonyl-1H-benzoimidazol-2-yl)-benzamide], the IC50 is greater than 20 µM at PTP 1B (setting [1]), 19 µM on PTP SHP2 (setting [2]) and 13.5 µM on PTP EPSILON (setting [3]).

Consider `CCOC(=O)c1cc2cc(NS(=O)(=O)C(F)(F)F)ccc2n1CC1CCCCC1` [Example 101, 1-Cyclohexylmethyl-5-trifluoromethanesulfonylamino-1H-indole-2-carboxylic acid ethyl ester], for which the IC50 was found to be 6.6 µM on PTP 1B (setting [1]), 3.4 µM at PTP SHP2 (setting [2]) and 1.4 µM on PTP EPSILON (setting [3]).

Take `O=C(O)Cn1c(C(=O)O)cc2cc(NS(=O)(=O)C(F)(F)F)ccc21` [Example 97, 1-Carboxymethyl-5-trifluoromethanesulfonylamino-1H-indole-2-carboxylic acid]: the IC50 at PTP 1B (setting [1]) stood at 44.2 µM; on PTP SHP2 (setting [2]), 6.1 µM; on PTP EPSILON (setting [3]), 62.9 µM.

As to `O=[N+]([O-])c1ccc(NCC(COc2ccc(S(=O)(=O)C(F)(F)F)cc2[N+](=O)[O-])Oc2ccc(S(=O)(=O)C(F)(F)F)cc2[N+](=O)[O-])cc1` (stereo not drawn) [Example 59, [2,3-Bis-(2-nitro-4-trifluoromethanesulfonyl-phenoxy)-propyl]-(4-nitro-phenyl)-amine], the IC50 on PTP 1B came out at 0.9 µM; at PTP SHP2 it was 0.2 µM; on PTP EPSILON it was 38.1 µM.

With `O=C(Cc1ccc(CC(=O)Nc2ccc(S(=O)(=O)C(F)(F)F)cc2)cc1)Nc1ccc(S(=O)(=O)C(F)(F)F)cc1` [Example 34, N-(4-Trifluoromethanesulfonyl-phenyl)-2-{4-[(4-trifluoromethanesulfonyl-phenylcarbamoyl)-methyl]-phenyl}-acetamide], the IC50 stood at 3.9 µM on PTP 1B (setting [1]), 2.3 µM at PTP SHP2 (setting [2]) and 9.1 µM on PTP EPSILON (setting [3]).

In the case of `CN(Cc1ccc2cc(C(=O)O)ccc2c1)S(=O)(=O)C(F)(F)F` [Example 92, 6-[(Methyl-trifluoromethanesulfonyl-amino)-methyl]-naphthalene-2-carboxylic acid], the values for the IC50 on PTP 1B (setting [1]), on PTP SHP2 (setting [2]) and at PTP EPSILON (setting [3]) were greater than 20 µM, 48 µM and 5.1 µM, respectively.
